This passage reports Ki results from ChEMBL document CHEMBL1131211, “Cyclopropane-derived peptidomimetics. Design, synthesis, evaluation, and structure of novel HIV-1 protease inhibitors” (J Med Chem, 1998).

This assay has as its target Human immunodeficiency virus type 1 protease (Human immunodeficiency virus 1, UniProt Q72874). The assay is described as follows: Inhibitory activity was measured against wild-type HIV-1 protease.
`CN(Cc1ccccn1)C(=O)[C@H]1[C@H](C(=O)N[C@@H](Cc2ccccc2)[C@@H](O)[C@H](O)[C@H](Cc2ccccc2)NC(=O)[C@H]2[C@H](C(=O)N(C)Cc3ccccn3)C2(C)C)C1(C)C` came in with a Ki of 80 nM.
Then `CC1(C)[C@@H](C(=O)NCc2ccccc2)[C@@H]1C(=O)N[C@@H](Cc1ccccc1)[C@@H](O)[C@H](O)[C@H](Cc1ccccc1)NC(=O)[C@H]1[C@H](C(=O)NCc2ccccc2)C1(C)C`, with 0.31 nM; and `CC(C)[C@H](NC(=O)N(C)Cc1ccccn1)C(=O)N[C@@H](Cc1ccccc1)[C@@H](O)[C@H](O)[C@H](Cc1ccccc1)NC(=O)[C@@H](NC(=O)N(C)Cc1ccccn1)C(C)C`, with 0.11 nM; and `C[C@H]1[C@@H](C(=O)NCc2ccccc2)[C@@H]1C(=O)N[C@@H](Cc1ccccc1)[C@@H](O)[C@H](O)[C@H](Cc1ccccc1)NC(=O)[C@@H]1[C@@H](C)[C@H]1C(=O)NCc1ccccc1`, with 0.16 nM.
In the case of `C[C@@H]1[C@@H](C(=O)NCc2ccccc2)[C@@H]1C(=O)N[C@@H](Cc1ccccc1)[C@@H](O)[C@H](O)[C@H](Cc1ccccc1)NC(=O)[C@@H]1[C@H](C)[C@H]1C(=O)NCc1ccccc1` it was 0.47 nM.
